Data as given in PMC2263054, “Functional evolution of the vitamin D and pregnane X receptors” (BMC Evolutionary Biology, 2007).

Key:
Human VDR = molecular target: T1, Human VDR (Homo sapiens, UniProt P11473); assay: luciferase reporter transactivation assay in HepG2-NTCP cells, full-length hVDR with CYP3A4-PXRE-Luc
T1 sequence (P11473 1-427): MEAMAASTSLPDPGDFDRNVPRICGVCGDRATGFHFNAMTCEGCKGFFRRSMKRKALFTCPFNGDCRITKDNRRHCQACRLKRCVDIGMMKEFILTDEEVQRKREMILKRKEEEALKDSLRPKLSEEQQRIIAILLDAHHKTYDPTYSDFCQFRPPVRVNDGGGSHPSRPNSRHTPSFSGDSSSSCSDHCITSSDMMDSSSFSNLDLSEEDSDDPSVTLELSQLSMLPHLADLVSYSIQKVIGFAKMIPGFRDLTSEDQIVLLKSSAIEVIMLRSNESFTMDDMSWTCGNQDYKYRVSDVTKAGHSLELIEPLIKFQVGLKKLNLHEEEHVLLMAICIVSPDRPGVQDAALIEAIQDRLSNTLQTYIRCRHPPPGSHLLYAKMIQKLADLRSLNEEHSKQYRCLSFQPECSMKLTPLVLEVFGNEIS

Mouse VDR = molecular target: T2, Mouse VDR (Mus musculus, UniProt P48281); assay: luciferase reporter transactivation assay in HepG2-NTCP cells, full-length mVDR with CYP3A4-PXRE-Luc
T2 sequence (P48281 1-422): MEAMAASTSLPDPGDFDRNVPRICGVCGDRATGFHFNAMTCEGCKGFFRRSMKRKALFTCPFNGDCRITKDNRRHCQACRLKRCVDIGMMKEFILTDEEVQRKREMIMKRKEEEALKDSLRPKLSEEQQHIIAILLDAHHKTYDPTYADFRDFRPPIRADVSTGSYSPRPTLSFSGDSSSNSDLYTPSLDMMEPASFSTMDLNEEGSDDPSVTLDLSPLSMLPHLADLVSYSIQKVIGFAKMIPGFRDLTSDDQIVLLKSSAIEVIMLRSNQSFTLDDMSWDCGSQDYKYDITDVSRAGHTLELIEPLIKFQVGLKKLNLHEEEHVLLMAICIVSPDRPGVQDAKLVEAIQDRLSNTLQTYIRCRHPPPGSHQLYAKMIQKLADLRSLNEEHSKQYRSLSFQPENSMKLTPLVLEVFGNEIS

Xenopus laevis VDR = molecular target: T3, Xenopus laevis VDR (Xenopus laevis, UniProt O13124); assay: luciferase reporter transactivation assay in HepG2-NTCP cells, GAL4/xlVDR LBD chimera with tk-UAS-Luc; assay type: cell-based; settings: for Effect on Xenopus laevis VDR: screening for activators, at least three concentrations of each drug
T3 sequence (O13124 90-422): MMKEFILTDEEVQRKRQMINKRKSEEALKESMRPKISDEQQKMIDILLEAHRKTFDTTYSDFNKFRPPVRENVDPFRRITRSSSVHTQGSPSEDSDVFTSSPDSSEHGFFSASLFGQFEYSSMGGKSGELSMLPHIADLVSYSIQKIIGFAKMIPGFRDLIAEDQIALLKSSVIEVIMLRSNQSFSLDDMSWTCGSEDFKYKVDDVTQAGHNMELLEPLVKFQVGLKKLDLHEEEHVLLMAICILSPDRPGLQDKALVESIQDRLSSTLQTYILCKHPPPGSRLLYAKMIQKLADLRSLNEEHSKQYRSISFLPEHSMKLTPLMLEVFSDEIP

Zebrafish VDR = molecular target: T4, Zebrafish VDR (Danio rerio, UniProt Q9PTN2); assay: luciferase reporter transactivation assay in HepG2-NTCP cells, GAL4/zfVDR LBD chimera with tk-UAS-Luc; assay type: cell-based; settings: for Effect on zebrafish VDR: screening for activators, at least three concentrations of each drug
T4 sequence (Q9PTN2 121-453): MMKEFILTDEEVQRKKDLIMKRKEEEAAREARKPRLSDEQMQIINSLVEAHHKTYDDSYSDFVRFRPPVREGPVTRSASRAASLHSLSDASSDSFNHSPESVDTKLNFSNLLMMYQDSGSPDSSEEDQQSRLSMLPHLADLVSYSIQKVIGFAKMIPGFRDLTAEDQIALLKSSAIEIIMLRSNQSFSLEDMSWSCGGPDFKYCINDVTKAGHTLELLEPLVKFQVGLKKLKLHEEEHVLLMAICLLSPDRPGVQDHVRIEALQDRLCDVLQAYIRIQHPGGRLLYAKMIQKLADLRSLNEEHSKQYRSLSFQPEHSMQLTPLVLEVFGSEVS

Sea lamprey VDR = molecular target: T5, Sea lamprey VDR (Petromyzon marinus, UniProt Q7ZZY9); assay type: cell-based; settings: screening for activators, at least three concentrations of each drug
T5 sequence (Q7ZZY9 92-406): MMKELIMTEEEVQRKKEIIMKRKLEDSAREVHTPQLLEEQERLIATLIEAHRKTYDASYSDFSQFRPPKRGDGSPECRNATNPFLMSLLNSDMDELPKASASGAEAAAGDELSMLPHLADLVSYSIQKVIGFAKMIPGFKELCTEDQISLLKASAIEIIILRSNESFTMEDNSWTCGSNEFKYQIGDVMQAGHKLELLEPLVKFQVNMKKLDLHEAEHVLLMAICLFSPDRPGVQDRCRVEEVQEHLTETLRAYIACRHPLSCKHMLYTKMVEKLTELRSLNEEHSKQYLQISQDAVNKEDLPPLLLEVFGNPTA

Row | Compound | EC50 (Human VDR) | EC50 (Mouse VDR) | EC50 (Xenopus laevis VDR; HepG2-NTCP cells, luciferase reporter, read-out: Xenopus VDR EC50 ± SD) | EC50 (Zebrafish VDR; HepG2-NTCP cells, luciferase reporter, read-out: Zebrafish VDR EC50 ± SD) | Effect on Xenopus laevis VDR (Xenopus laevis VDR) | Effect on zebrafish VDR (Zebrafish VDR) | Effect on sea lamprey VDR (Sea lamprey VDR) | activation of ciVDR/PXR (Ciona VDR/PXR)
1 | C=C1/C(=C\C=C2/CCC[C@]3(C)[C@@H]([C@H](C)/C=C/[C@H](C)C(C)C)CC[C@@H]23)C[C@@H](O)C[C@@H]1O [1α-Hydroxyvitamin D2] | 0.013 ± 0.0012 µM | 0.0008 ± 0.0001 µM | 0.624 ± 0.049 µM | 0.026 ± 0.0017 µM | – | – | – | –
2 | CC1=C(/C=C/C(C)=C/C=C/C(C)=C/CO)C(C)(C)CCC1 [Retinol] | – | – | – | – | No effect | No effect | No effect | –
3 | CC(=O)OC/C=C(C)/C=C/C=C(C)/C=C/C1=C(C)CCCC1(C)C [Retinyl acetate] | – | – | – | – | No effect | No effect | No effect | –
4 | CCOP(=O)(OCC)C(=Cc1cc(C(C)(C)C)c(O)c(C(C)(C)C)c1)P(=O)(OCC)OCC [SR12813] | – | – | – | – | No effect | No effect | No effect | –
5 | O=S(=O)(c1ccccc1)N(CC(F)(F)F)c1ccc(C(O)(C(F)(F)F)C(F)(F)F)cc1 [T-0901317] | – | – | – | – | None of these three VDRs were activated | None of these three VDRs were activated | None of these three VDRs were activated | –
6 | Clc1cnc(Oc2ccc(Oc3ncc(Cl)cc3Cl)cc2)c(Cl)c1 [TCPOBOP] | – | – | – | – | No effect | No effect | No effect | –
7 | C/C(=C\c1ccc(C(=O)O)cc1)c1ccc2c(c1)C(C)(C)CCC2(C)C [TTNPB] | – | – | – | – | No effect | No effect | No effect | –
8 | C[C@H](CCC(=O)NCCS(=O)(=O)O)[C@H]1CC[C@H]2[C@@H]3[C@H](O)C[C@@H]4C[C@H](O)CC[C@]4(C)[C@H]3CC[C@]12C [Taurochenodeoxycholic acid] | – | – | – | – | No effect | No effect | No effect | –
9 | C[C@H](CCC(=O)NCCS(=O)(=O)[O-])[C@H]1CC[C@H]2[C@@H]3CC[C@@H]4C[C@H](O)CC[C@]4(C)[C@H]3C[C@H](O)[C@]12C.[Na+] [Taurodeoxycholic acid sodium salt] | – | – | – | – | No effect | No effect | No effect | –
10 | C[C@H](CCC(=O)NCCS(=O)(=O)[O-])[C@H]1CC[C@H]2[C@@H]3C[C@H](O)[C@@H]4C[C@H](O)CC[C@]4(C)[C@H]3CC[C@]12C.[Na+] [Taurohyodeoxycholic acid] | – | – | – | – | No effect | No effect | No effect | –
11 | C[C@H](CCC(=O)NCCS(=O)(=O)O)[C@H]1CC[C@H]2[C@@H]3CC[C@@H]4C[C@H](OS(=O)(=O)O)CC[C@]4(C)[C@H]3CC[C@]12C [Taurolithocholic acid 3-sulfate] | – | – | – | – | No effect | No effect | No effect | –
12 | CCCCCCCCCCCCCCSCC(=O)O [Tetradecylthioacetic acid] | – | – | – | – | No effect | No effect | No effect | –
13 | C[C@]12CC[C@@H](O)C[C@H]1CC[C@@H]1[C@@H]2[C@@H](O)C[C@@]2(C)[C@H]1CC[C@]2(O)C(=O)CO [Tetrahydrocortisol] | – | – | – | – | No effect | No effect | No effect | –
14 | C[C@]12CC[C@@H](O)C[C@H]1CC[C@@H]1[C@@H]2C(=O)C[C@@]2(C)[C@H]1CC[C@]2(O)C(=O)CO [Tetrahydrocortisone] | – | – | – | – | No effect | No effect | No effect | –
15 | Cc1c(C)c2c(c(C)c1O)CCC(C)(COc1ccc(CC3SC(=O)NC3=O)cc1)O2 (stereo not drawn) [Troglitazone] | – | – | – | – | No effect | No effect | No effect | –
16 | CC(C)=CCC/C(C)=C/CC/C(C)=C/CC/C(C)=C/CC1=C(C)C(=O)c2ccccc2C1=O [Vitamin K2] | – | – | – | – | No effect | No effect | No effect | –
17 | CC1=CC(=O)c2ccccc2C1=O [Vitamin K3] | – | – | – | – | No effect | No effect | No effect | –
18 | Cc1cccc(Nc2cc(Cl)nc(SCC(=O)O)n2)c1C [WY-14643] | – | – | – | – | No effect | No effect | No effect | –
19 | C/C=C1\C(=O)C[C@H]2[C@@H]3CCC4=CC(=O)CC[C@]4(C)[C@H]3CC[C@]12C [Z-Guggulsterone] | – | – | – | – | No effect | No effect | No effect | –
20 | C[C@H](CCC(=O)O)[C@H]1CC[C@H]2[C@@H]3[C@H](O)[C@@H](O)[C@@H]4C[C@H](O)CC[C@]4(C)[C@H]3CC[C@]12C [a-Muricholic acid] | – | – | – | – | No effect | No effect | No effect | –
21 | C[C@H](CCC(=O)O)[C@H]1CC[C@H]2[C@@H]3[C@@H](O)[C@@H](O)[C@@H]4C[C@H](O)CC[C@]4(C)[C@H]3CC[C@]12C [b-Muricholic acid] | – | – | – | – | No effect | No effect | No effect | –
22 | NC(=O)N1c2ccccc2C=Cc2ccccc21 [carbamazepine] | – | – | – | – | – | – | – | activated
23 | COC(=O)/C=C/c1cccc(N(Cc2ccc(-c3ccc(N(C)C)cc3)cc2)C(=O)C2CCCCC2)c1 [fexaramine] | – | – | – | – | None of these three VDRs were activated | None of these three VDRs were activated | None of these three VDRs were activated | –
24 | CCCCOC(=O)c1ccc(N)cc1 [n-Butyl 4-aminobenzoate] | – | – | – | – | No effect | No effect | No effect | activated
25 | CCCOC(=O)c1ccc(O)cc1 [n-Propyl 4-hydroxybenzoate] | – | – | – | – | No effect | No effect | No effect | –
26 | C[C@H](CCC(=O)O)[C@H]1CC[C@H]2[C@@H]3[C@@H](O)[C@H](O)[C@@H]4C[C@H](O)CC[C@]4(C)[C@H]3CC[C@]12C [w-Muricholic acid] | – | – | – | – | No effect | No effect | No effect | –
27 | AM-580 | – | – | – | – | No effect | No effect | No effect | –
28 | Hyperforin | – | – | – | – | No effect | No effect | No effect | –
